According to US10899758B2, “Inhibitors of the menin-MLL interaction” (Vitae Pharmaceuticals, LLC, priority 2016, dated 2021):

Each molecule was assayed against T1, menin/MLL binding (biotinylated wild-type or mutated menin and MLL-AF9 fusion protein) (Homo sapiens, UniProt O00255) (assay: Assay 1 (Binding Assay): AlphaLISA menin/MLL binding). Details: 5 nM biotinylated menin, MLL-AF9-FLAG lysate.
T1 construct: biotinylated (1) wild-type menin or (2) mutated menin (described in Nature (2012) Vol. 482, pp. 542-548); fused on or other part: Biotin attached chemically (Sulfo-NHS-Biotin); no fused second protein is printed for menin
T1 sequence (O00255 1-459 limits assumed): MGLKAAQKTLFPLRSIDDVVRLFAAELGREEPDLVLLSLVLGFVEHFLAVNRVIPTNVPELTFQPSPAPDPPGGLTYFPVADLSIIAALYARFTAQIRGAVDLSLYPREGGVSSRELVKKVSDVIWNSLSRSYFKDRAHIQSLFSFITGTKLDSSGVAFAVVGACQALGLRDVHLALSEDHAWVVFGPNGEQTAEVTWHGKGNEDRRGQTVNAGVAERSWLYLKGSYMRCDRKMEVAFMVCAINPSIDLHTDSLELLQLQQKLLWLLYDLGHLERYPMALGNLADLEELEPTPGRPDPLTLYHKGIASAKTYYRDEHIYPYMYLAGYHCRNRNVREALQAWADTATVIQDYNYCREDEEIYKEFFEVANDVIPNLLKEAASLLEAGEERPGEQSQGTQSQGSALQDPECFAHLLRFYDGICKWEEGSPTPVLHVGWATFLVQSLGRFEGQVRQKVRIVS
Protocol: Potencies of inhibitor compounds against menin/MLL binding were assessed by AlphaLISA assay using biotinylated (1) wild-type menin or (2) mutated menin (described in Nature (2012) Vol. 482, pp. 542-548) and MLL-AF9 fusion protein bearing a FLAG epitope at its C-terminus. Menin proteins were expressed in E. coli and covalently modified with biotin using EZ-Link™ Sulfo-NHS-Biotin (ThermoFisher Cat. No. 21217) according to manufacturer's protocol. MLL1-1,396 fused to AF91-92 and the C-terminal FLAG peptide was expressed in HEK293 cells and used as a lysate cleared at 21,000×g for 10 min.
Compounds (2 μL of solutions in DMSO) were dispensed in white 96-well half-area plates (Corning Cat. No. 3693) and incubated for 30 min at RT with 5 nM biotinylated menin and appropriate amount of MLL-AF9-FLAG lysate in 40 μL of 50 mM Tris-HCl buffer pH 7.4 containing 5% (v/v) DMSO, 50 mM NaCl, 0.01% (w/v) bovine serum albumin (BSA) and 1 mM DTT. To this incubation mixture, 40 μl of AlphaLISA anti-FLAG acceptor (PerkinElmer Cat. No. AL112C) and streptavidin donor (PerkinElmer Cat. No. 6760002) beads (10 μg/mL each) was added and incubation continued at RT for 60 min. Alpha (amplified luminescent proximity homogeneous assay) signal was measured on an Envision multi-label plate reader at the end of the incubation. All steps were conducted under dim fluorescent light.
These percent inhibition values were regressed against compound concentrations in the assay using four parameter logit non-linear curve fitting (XLFit, IDBS). The IC50 values were derived from the curve fitting as inflection points on the dose-response curves and are set out in Table 14 below.

Molecule | IC50
CC(C)N(C)C(=O)c1cc(F)ccc1-n1cc(C2CCC(N3CCC(O)C3)CC2)c2ccncc21 (single isomer, unassigned) [Example 95A, 5-fluoro-2-(3-(4-(3-hydroxypyrrolidin-1-yl)cyclohexyl)-1H-pyrrolo[2,3-c]pyridin-1-yl)-N-isopropyl-N-methylbenzamide] | < 0.1 µM
CC(C)N(C(=O)c1cc(F)ccc1-n1cc(C2CCC(N3CCC4(CC(NS(C)(=O)=O)C4)C3)CC2)c2ccncc21)C(C)C (single isomer, unassigned) [Example 139, 5-fluoro-N,N-diisopropyl-2-(3-(4-(2-(methylsulfonamido)-6-azaspiro[3.4]octan-6-yl)cyclohexyl)-1H-pyrrolo[2,3-c]pyridin-1-yl)benzamide] | < 0.1 µM
CC(C)N(C(=O)c1cc(F)ccc1-n1cc(C2CCC(N3CCC4(CC(NS(C)(=O)=O)C4)C3)CC2)c2ccncc21)C(C)C (single isomer, unassigned) [Example 139A, 5-fluoro-N,N-diisopropyl-2-(3-(4-(2-(methylsulfonamido)-6-azaspiro[3.4]octan-6-yl)cyclohexyl)-1H-pyrrolo[2,3-c]pyridin-1-yl)benzamide] | < 0.1 µM
CC(=O)Nc1ccc(CN2CCC(c3cn(-c4ccc(F)cc4C(=O)N(C)C(C)C)c4cnccc34)CC2)cc1 [Example 22, 2-(3-(1-(4-acetamidobenzyl)piperidin-4-yl)-1H-pyrrolo[2,3-c]pyridin-1-yl)-5-fluoro-N-isopropyl-N-methylbenzamide] | < 0.1 µM
CC(C)N(C)C(=O)c1cc(F)ccc1-n1cc(C2CCN(CCc3cccc(C#N)c3)CC2)c2ccncc21 [Example 25, 2-(3-(1-(3-cyanophenethyl)piperidin-4-yl)-1H-pyrrolo[2,3-c]pyridin-1-yl)-5-fluoro-N-isopropyl-N-methylbenzamide] | < 0.1 µM
CC(C)CCN1CCC(c2cn(-c3ccc(F)cc3)c3cnccc23)CC1 [Example 39, 1-(4-fluorophenyl)-3-(1-isopentylpiperidin-4-yl)-1H-pyrrolo[2,3-c]pyridine] | 0.1 to 1 µM
Fc1ccc(-n2cc(C3CCN(CCc4ccccc4)CC3)c3ccncc32)cc1 [Example 40, 1-(4-fluorophenyl)-3-(1-phenethylpiperidin-4-yl)-1H-pyrrolo[2,3-c]pyridine] | 0.1 to 1 µM
CC(C)N(C)C(=O)c1cc(F)ccc1-n1cc(C2CCCNCC2)c2ccncc21 (stereo not shown) [Example 41A, 2-(3-(azepan-4-yl)-1H-pyrrolo[2,3-c]pyridin-1-yl)-5-fluoro-N-isopropyl-N-methylbenzamide] | 0.1 to 1 µM
CC(C)N(C)C(=O)c1cc(F)ccc1-n1cc(C2CCC3(CC2)CNC3)c2ccncc21 [Example 51, 2-(3-(2-azaspiro[3.5]nonan-7-yl)-1H-pyrrolo[2,3-c]pyridin-1-yl)-5-fluoro-N-isopropyl-N-methylbenzamide] | 0.1 to 1 µM
CC(C)N(C)C(=O)c1cc(F)ccc1-n1cc(C2CCC(Oc3ccccc3)CC2)c2ccncc21 (stereo not shown) [Example 59, 5-fluoro-N-isopropyl-N-methyl-2-(3-(4-phenoxycyclohexyl)-1H-pyrrolo[2,3-c]pyridin-1-yl)benzamide] | 0.1 to 1 µM
Cc1c(CN2CCC(c3cn(-c4ccc(F)cc4C(=O)N(C)C)c4cncnc34)CC2)ccc2[nH]c(C#N)cc12 [Example 64, 2-(7-(1-((2-cyano-4-methyl-1H-indol-5-yl)methyl)piperidin-4-yl)-5H-pyrrolo[3,2-d]pyrimidin-5-yl)-5-fluoro-N,N-dimethylbenzamide] | < 0.1 µM

Now from value to molecule:

IC50 | Molecule
< 0.1 µM | 5-fluoro-N-isopropyl-N- methyl-2-(3-(2-((1- (methylsulfonyl) piperidin-4-yl)methyl) octahydrocyclopenta [c]pyrrol-5-yl)- 1H-pyrrolo[2,3-c] pyridin-1-yl) benzamide [Example 91]
< 0.1 µM | CC(C)N(C)C(=O)c1cc(F)ccc1-n1cc(C2CCCN(Cc3ccc4[nH]c(=O)[nH]c4c3)C2)c2ccncc21 (single isomer, unassigned) [Example 43B, 5-fluoro-N-isopropyl-N-methyl-2-(3-(1-((2-oxo-2,3-dihydro-1H-benzo[d]imidazol-5-yl)methyl)piperidin-3-yl)-1H-pyrrolo[2,3-c]pyridin-1-yl)benzamide]
≥ 1 µM | CC(C)N(C)C(=O)c1cc(F)ccc1-n1cc(C2CCC(O)CC2)c2ccncc21 (single isomer, unassigned) [Example 53, 5-fluoro-2-(3-(4-hydroxycyclohexyl)-1H-pyrrolo[2,3-c]pyridin-1-yl)-N-isopropyl-N-methylbenzamide]
≥ 1 µM | CC(C)N(C)C(=O)c1cc(F)ccc1-n1cc(C2CCC(O)CC2)c2ccncc21 (single isomer, unassigned) [Example 53A, 5-fluoro-2-(3-(4-hydroxycyclohexyl)-1H-pyrrolo[2,3-c]pyridin-1-yl)-N-isopropyl-N-methylbenzamide]
< 0.1 µM | CC(C)N(C)C(=O)c1cc(F)ccc1-n1cc(C2CCC(N(C)CC3CCC(NS(C)(=O)=O)CC3)CC2)c2ccncc21 (single isomer, unassigned) [Example 128A, 5-fluoro-N-isopropyl-N-methyl-2-(3-(4-(methyl((4-(methylsulfonamido)cyclohexyl)methyl)amino)cyclohexyl)-1H-pyrrolo[2,3-c]pyridin-1-yl)benzamide]
< 0.1 µM | CC(C)N(C)C(=O)c1cc(F)ccc1-n1cc(C2CCN(C[C@H]3C[C@@H](NS(C)(=O)=O)C3)CC2)c2ccncc21 (stereo in doubt) [Example 92, 5-fluoro-N-isopropyl-N-methyl-2-(3-(1-((cis-3-(methylsulfonamido)cyclobutyl)methyl)piperidin-4-yl)-1H-pyrrolo[2,3-c]pyridin-1-yl)benzamide]
< 0.1 µM | CC(C)N(C)C(=O)c1cc(F)ccc1-n1cc(C2CCN(Cc3ccc(C(F)(F)F)cc3)CC2)c2ccncc21 [Example 11, 5-fluoro-N-isopropyl-N-methyl-2-(3-(1-(4-(trifluoromethyl)benzyl)piperidin-4-yl)-1H-pyrrolo[2,3-c]pyridin-1-yl)benzamide]
0.1 to 1 µM | CC(C)N(C)C(=O)c1cc(F)ccc1-n1cc(C2CCN(Cc3ccc(S(C)(=O)=O)cc3)CC2)c2ccncc21 [Example 13, 5-fluoro-N-isopropyl-N-methyl-2-(3-(1-(4-(methylsulfonyl)benzyl)piperidin-4-yl)-1H-pyrrolo[2,3-c]pyridin-1-yl)benzamide]
0.1 to 1 µM | CC(C)N(C)C(=O)c1cc(F)ccc1-n1cc(C2CCN(C)CC2)c2ccncc21 [Example 17, 5-fluoro-N-isopropyl-N-methyl-2-(3-(1-methylpiperidin-4-yl)-1H-pyrrolo[2,3-c]pyridin-1-yl)benzamide]
< 0.1 µM | Fc1ccc(CN2CCC(c3cn(-c4ccc(F)cc4OCC4CC4)c4cnccc34)CC2)cc1 [Example 35, 1-(2-(cyclopropylmethoxy)-4-fluorophenyl)-3-(1-(4-fluorobenzyl)piperidin-4-yl)-1H-pyrrolo[2,3-c]pyridine]
0.1 to 1 µM | Cc1c(CN2CCC(c3cn(-c4ccc(Cl)cc4)c4cnccc34)CC2)ccc2[nH]c(C#N)cc12 [Example 38, 5-((4-(1-(4-chlorophenyl)-1H-pyrrolo[2,3-c]pyridin-3-yl)piperidin-1-yl)methyl)-4-methyl-1H-indole-2-carbonitrile]
0.1 to 1 µM | CC(C)N(C)C(=O)c1cc(F)ccc1-n1cc(C2CCC3(CC2)CN(C)C3)c2ccncc21 [Example 51A, 5-fluoro-N-isopropyl-N-methyl-2-(3-(2-methyl-2-azaspiro[3.5]nonan-7-yl)-1H-pyrrolo[2,3-c]pyridin-1-yl)benzamide]
0.1 to 1 µM | CC(C)N(C)C(=O)c1cc(F)ccc1-n1cc(-c2ccc3c(c2)CCN(C)C3)c2ccncc21 [Example 52, 5-fluoro-N-isopropyl-N-methyl-2-(3-(2-methyl-1,2,3,4-tetrahydroisoquinolin-6-yl)-1H-pyrrolo[2,3-c]pyridin-1-yl)benzamide]
≥ 1 µM | Fc1ccc(-n2cc(C3CCN(CC4CCOCC4)CC3)c3ncncc32)cc1 [Example 65, 5-(4-fluorophenyl)-7-(1-((tetrahydro-2H-pyran-4-yl)methyl)piperidin-4-yl)-5H-pyrrolo[3,2-d]pyrimidine]
